Assays:
Experiment in all cases: KINOMEscan competition binding
Details in all cases: compound 10.0 µM
AKT3 (human) = AKT3 (human) (UniProt Q9Y243)
ANKK1 (human) = ANKK1 (human) (UniProt Q8NFD2)
BMP2K (human) = BMP2K (human) (UniProt Q9NSY1)
BMX (human) = BMX (human) (UniProt P51813)
CAMKK2 (human) = CAMKK2 (human) (UniProt Q96RR4)
CDK19 (human) = CDK19 (human) (UniProt Q9BWU1)
CaMK1 (human) = CaMK1 (human) (UniProt Q14012)
EGFR (human) = EGFR (human) (UniProt P00533)
EPHA1 (human) = EPHA1 (human) (UniProt P21709)
EPHA2 (human) = EPHA2 (human) (UniProt P29317)
ERBB3 (human) = ERBB3 (human) (UniProt P21860)
ERBB4 (human) = ERBB4 (human) (UniProt Q15303)
GRK7 (human) = GRK7 (human) (UniProt Q8WTQ7)
HUNK (human) = HUNK (human) (UniProt P57058)
ICK (human) = ICK (human) (UniProt Q9UPZ9)
LATS1 (human) = LATS1 (human) (UniProt O95835)
LATS2 (human) = LATS2 (human) (UniProt Q9NRM7)
LRRK2 (human) = LRRK2 (human) (UniProt Q5S007)
MAP3K4 (human) = MAP3K4 (human) (UniProt Q9Y6R4)
MAP4K1 (human) = MAP4K1 (human) (UniProt Q92918)
MARK3 (human) = MARK3 (human) (UniProt P27448)
MINK1 (human) = MINK1 (human) (UniProt Q8N4C8)
MKNK1 (human) = MKNK1 (human) (UniProt Q9BUB5)
NEK7 (human) = NEK7 (human) (UniProt Q8TDX7)
NUAK1 (human) = NUAK1 (human) (UniProt O60285)
PI4KB (human) = PI4KB (human) (UniProt Q9UBF8)
PIK3C2G (human) = PIK3C2G (human) (UniProt O75747)
[1] = system: PIK3CA (human), P42336 [I800L]
PIM1 (human) = PIM1 (human) (UniProt P11309)
PRKCE (human) = PRKCE (human) (UniProt Q02156)
PRKD2 (human) = PRKD2 (human) (UniProt Q9BZL6)
PRKD3 (human) = PRKD3 (human) (UniProt O94806)
RIOK1 (human) = RIOK1 (human) (UniProt Q9BRS2)
RIOK2 (human) = RIOK2 (human) (UniProt Q9BVS4)
RPS6KA5 KD2 (human) = RPS6KA5 KD2 (human) (UniProt O75582)
SGK110 (human) = SGK110 (human) (UniProt P0C264)
STK3 (human) = STK3 (human) (UniProt Q13188)
STK38L (human) = STK38L (human) (UniProt Q9Y2H1)
SYK (human) = SYK (human) (UniProt P43405)
TGFBR1 (human) = TGFBR1 (human) (UniProt P36897)
ULK2 (human) = ULK2 (human) (UniProt Q8IYT8)
Chain of ULK2 (human) (Q8IYT8 whole entry, looked up): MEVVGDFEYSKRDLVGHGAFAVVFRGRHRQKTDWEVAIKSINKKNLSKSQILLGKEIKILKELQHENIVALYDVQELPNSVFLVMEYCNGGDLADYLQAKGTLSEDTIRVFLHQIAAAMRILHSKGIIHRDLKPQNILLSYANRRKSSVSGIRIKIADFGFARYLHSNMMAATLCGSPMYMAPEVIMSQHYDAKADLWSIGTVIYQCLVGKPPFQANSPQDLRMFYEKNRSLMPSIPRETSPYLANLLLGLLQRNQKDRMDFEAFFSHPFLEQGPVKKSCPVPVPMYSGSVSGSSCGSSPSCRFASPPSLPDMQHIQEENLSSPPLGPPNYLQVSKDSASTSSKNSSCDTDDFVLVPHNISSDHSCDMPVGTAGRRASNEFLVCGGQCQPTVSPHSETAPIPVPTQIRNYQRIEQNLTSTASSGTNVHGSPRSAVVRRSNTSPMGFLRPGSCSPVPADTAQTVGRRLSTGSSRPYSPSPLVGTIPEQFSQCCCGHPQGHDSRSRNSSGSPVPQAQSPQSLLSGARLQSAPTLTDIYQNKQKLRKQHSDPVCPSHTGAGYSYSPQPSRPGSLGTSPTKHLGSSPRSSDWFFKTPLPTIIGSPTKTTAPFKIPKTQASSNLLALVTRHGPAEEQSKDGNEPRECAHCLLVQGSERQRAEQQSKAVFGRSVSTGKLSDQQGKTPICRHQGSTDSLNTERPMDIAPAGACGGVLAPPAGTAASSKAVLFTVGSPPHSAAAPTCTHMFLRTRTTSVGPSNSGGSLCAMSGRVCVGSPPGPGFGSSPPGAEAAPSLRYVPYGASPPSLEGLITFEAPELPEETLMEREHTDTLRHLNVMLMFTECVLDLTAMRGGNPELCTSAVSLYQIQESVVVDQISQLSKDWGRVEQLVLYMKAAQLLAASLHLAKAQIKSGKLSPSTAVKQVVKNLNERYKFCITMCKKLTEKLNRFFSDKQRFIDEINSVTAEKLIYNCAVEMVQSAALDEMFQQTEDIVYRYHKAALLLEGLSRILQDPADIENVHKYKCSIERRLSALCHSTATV

Chain of CaMK1 (human) (Q14012 whole entry, looked up): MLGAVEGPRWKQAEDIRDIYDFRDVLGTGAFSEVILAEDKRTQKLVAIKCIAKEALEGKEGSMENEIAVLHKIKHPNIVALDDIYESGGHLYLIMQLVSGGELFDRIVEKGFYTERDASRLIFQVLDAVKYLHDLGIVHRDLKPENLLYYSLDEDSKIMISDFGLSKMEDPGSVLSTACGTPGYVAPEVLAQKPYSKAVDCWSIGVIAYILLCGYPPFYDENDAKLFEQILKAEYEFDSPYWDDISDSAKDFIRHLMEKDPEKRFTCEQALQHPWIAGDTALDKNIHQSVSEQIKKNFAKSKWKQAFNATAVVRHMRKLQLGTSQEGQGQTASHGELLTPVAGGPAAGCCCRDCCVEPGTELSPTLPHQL
Chain of EPHA2 (human) (P29317 whole entry, looked up): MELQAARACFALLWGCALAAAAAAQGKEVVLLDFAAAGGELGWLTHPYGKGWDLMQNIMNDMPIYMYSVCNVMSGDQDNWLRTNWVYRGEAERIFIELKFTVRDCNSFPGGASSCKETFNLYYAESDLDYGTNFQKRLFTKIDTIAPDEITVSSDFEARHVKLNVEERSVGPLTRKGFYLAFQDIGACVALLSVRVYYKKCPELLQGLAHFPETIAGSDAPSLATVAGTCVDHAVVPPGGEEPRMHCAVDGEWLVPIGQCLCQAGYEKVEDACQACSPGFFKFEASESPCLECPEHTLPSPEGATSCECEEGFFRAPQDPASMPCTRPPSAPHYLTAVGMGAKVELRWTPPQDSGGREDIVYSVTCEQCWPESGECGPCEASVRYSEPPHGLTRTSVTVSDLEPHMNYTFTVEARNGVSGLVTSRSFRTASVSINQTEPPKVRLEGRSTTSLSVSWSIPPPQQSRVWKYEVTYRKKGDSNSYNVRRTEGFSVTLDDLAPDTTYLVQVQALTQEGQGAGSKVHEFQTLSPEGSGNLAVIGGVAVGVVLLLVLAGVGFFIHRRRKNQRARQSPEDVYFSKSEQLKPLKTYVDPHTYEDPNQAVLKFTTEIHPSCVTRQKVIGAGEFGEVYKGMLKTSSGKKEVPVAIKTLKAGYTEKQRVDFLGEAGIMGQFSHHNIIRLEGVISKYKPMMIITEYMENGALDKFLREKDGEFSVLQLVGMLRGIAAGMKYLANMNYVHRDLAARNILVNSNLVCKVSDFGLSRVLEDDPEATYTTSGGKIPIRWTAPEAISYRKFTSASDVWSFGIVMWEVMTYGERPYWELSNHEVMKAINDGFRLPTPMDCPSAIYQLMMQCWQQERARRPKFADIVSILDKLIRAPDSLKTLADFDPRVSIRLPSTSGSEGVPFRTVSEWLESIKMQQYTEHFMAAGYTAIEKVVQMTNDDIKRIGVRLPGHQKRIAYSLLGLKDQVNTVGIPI
Chain of GRK7 (human) (Q8WTQ7 whole entry, looked up): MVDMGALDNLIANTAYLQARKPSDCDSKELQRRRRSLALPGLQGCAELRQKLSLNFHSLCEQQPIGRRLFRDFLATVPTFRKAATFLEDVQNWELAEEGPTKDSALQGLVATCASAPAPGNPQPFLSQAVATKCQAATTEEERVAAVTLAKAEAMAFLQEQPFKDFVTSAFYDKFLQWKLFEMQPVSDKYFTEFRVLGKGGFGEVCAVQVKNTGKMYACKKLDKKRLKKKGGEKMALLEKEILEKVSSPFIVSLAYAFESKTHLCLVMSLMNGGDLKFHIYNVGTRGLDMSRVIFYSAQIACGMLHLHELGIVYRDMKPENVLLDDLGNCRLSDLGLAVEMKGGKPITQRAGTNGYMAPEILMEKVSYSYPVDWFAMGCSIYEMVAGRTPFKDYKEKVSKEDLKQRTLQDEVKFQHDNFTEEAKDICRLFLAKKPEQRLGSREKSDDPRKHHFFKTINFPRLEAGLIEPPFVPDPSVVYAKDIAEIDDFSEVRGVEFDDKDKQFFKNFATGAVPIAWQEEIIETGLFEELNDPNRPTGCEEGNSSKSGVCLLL
Chain of HUNK (human) (P57058 whole entry, looked up): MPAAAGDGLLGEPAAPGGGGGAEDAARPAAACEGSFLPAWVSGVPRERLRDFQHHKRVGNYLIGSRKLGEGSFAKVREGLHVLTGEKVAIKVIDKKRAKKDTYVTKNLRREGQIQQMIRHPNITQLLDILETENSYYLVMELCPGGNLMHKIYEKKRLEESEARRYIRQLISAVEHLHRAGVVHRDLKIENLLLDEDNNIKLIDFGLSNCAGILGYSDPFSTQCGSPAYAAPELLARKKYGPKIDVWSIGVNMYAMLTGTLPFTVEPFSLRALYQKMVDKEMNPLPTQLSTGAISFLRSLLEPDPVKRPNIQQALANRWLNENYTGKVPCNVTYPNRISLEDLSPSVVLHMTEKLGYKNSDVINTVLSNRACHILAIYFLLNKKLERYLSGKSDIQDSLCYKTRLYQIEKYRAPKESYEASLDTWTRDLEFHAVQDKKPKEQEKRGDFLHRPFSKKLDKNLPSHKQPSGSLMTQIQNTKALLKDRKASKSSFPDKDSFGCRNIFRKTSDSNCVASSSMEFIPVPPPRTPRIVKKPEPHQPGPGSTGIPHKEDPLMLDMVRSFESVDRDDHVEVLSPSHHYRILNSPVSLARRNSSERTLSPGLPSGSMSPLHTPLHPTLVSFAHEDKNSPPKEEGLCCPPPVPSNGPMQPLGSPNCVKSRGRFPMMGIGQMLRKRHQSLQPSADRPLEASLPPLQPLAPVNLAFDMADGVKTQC
Chain of PIK3CA (human), P42336 [I800L] (P42336 whole entry I800L, looked up): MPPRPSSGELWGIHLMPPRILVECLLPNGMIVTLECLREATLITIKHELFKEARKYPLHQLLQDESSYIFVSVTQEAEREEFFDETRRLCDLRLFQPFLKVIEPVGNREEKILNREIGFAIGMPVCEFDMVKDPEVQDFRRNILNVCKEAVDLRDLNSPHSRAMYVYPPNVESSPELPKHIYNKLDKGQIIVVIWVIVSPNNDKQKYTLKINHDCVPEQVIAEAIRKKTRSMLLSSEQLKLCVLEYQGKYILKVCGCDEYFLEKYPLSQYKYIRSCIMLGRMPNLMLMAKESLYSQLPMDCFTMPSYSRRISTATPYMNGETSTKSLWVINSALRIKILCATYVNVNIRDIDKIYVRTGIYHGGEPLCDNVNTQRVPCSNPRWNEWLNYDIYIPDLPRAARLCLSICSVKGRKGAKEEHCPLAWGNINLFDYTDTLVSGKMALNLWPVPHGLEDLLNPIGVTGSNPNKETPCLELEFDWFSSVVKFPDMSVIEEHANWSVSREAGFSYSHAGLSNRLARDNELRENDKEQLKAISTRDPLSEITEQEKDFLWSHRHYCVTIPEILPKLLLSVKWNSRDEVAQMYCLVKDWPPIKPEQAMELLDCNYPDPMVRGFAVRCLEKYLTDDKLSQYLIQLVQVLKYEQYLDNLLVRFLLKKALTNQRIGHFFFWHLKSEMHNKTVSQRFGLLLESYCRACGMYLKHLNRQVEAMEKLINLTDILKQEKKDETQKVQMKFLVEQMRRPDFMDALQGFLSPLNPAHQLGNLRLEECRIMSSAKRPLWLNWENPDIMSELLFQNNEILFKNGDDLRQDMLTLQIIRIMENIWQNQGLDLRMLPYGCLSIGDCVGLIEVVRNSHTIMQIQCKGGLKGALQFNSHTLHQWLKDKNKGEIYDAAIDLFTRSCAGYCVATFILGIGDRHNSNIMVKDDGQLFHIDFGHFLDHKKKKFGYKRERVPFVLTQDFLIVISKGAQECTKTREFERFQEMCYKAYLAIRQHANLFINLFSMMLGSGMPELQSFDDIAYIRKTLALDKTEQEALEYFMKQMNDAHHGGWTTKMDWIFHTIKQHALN
Chain of PIM1 (human) (P11309 whole entry, looked up): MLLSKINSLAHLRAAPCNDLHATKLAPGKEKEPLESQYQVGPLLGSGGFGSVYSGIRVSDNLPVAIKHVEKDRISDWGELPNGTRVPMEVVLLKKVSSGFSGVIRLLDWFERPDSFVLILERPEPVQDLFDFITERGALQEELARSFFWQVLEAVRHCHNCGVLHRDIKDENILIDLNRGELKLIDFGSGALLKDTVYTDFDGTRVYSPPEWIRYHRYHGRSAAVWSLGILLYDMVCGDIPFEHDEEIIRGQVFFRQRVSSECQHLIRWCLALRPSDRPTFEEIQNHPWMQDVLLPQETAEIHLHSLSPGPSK

Q: How did the kinase still bound, per cent of control (AKT3 (human)) turn out when CCC(=O)N1CCN(c2ccc(-n3c(=O)ccc4cnc5ccc(-c6cnc7ccccc7c6)cc5c43)cc2C(F)(F)F)CC1 was run?
A: The kinase still bound, per cent of control was 77%.

Q: What about the kinase still bound, per cent of control (ANKK1 (human)) of the same compound?
A: The kinase still bound, per cent of control was 93%.

Q: What about the kinase still bound, per cent of control (BMP2K (human)) of the same compound?
A: The kinase still bound, per cent of control was 100%.

Q: What about the kinase still bound, per cent of control (BMX (human)) of the same compound?
A: Its kinase still bound, per cent of control is 59%.

Q: What about the kinase still bound, per cent of control (CAMKK2 (human)) of the same compound?
A: The kinase still bound, per cent of control was 85%.

Q: And the per cent of control (CDK19 (human))?
A: The per cent of control was 1.2%.

Q: What about the kinase still bound, per cent of control (CaMK1 (human)) of the same compound?
A: Its kinase still bound, per cent of control is 50%.

Q: What about the kinase still bound, per cent of control (EGFR (human)) of the same compound?
A: The kinase still bound, per cent of control was 85%.

Q: And the kinase still bound, per cent of control (EPHA1 (human))?
A: The kinase still bound, per cent of control was 62%.

Q: And the kinase still bound, per cent of control (EPHA2 (human))?
A: The kinase still bound, per cent of control was 59%.

Q: What about the kinase still bound, per cent of control (ERBB3 (human)) of the same compound?
A: The kinase still bound, per cent of control was 44%.

Q: What about the kinase still bound, per cent of control (ERBB4 (human)) of the same compound?
A: Its kinase still bound, per cent of control is 100%.

Q: What about the kinase still bound, per cent of control (GRK7 (human)) of the same compound?
A: Its kinase still bound, per cent of control is 100%.

Q: What about the kinase still bound, per cent of control (HUNK (human)) of the same compound?
A: The kinase still bound, per cent of control was 91%.

Q: What about the kinase still bound, per cent of control (ICK (human)) of the same compound?
A: Its kinase still bound, per cent of control is 100%.

Q: What about the kinase still bound, per cent of control (LATS1 (human)) of the same compound?
A: The kinase still bound, per cent of control was 100%.

Q: And the kinase still bound, per cent of control (LATS2 (human))?
A: The kinase still bound, per cent of control was 100%.

Q: What about the kinase still bound, per cent of control (LRRK2 (human)) of the same compound?
A: The kinase still bound, per cent of control was 81%.

Q: And the kinase still bound, per cent of control (MAP3K4 (human))?
A: Its kinase still bound, per cent of control is 47%.

Q: And the kinase still bound, per cent of control (MAP4K1 (human))?
A: Its kinase still bound, per cent of control is 30%.

Q: What about the kinase still bound, per cent of control (MARK3 (human)) of the same compound?
A: The kinase still bound, per cent of control was 100%.

Q: What about the kinase still bound, per cent of control (MINK1 (human)) of the same compound?
A: The kinase still bound, per cent of control was 19%.

Q: What about the kinase still bound, per cent of control (MKNK1 (human)) of the same compound?
A: Its kinase still bound, per cent of control is 44%.

Q: What about the kinase still bound, per cent of control (NEK7 (human)) of the same compound?
A: The kinase still bound, per cent of control was 90%.

Q: And the kinase still bound, per cent of control (NUAK1 (human))?
A: The kinase still bound, per cent of control was 100%.

Q: And the kinase still bound, per cent of control (PI4KB (human))?
A: Its kinase still bound, per cent of control is 96%.

Q: What about the kinase still bound, per cent of control (PIK3C2G (human)) of the same compound?
A: The kinase still bound, per cent of control was 11%.

Q: And the kinase still bound, per cent of control [1]?
A: Its kinase still bound, per cent of control is 0%.

Q: And the kinase still bound, per cent of control (PIM1 (human))?
A: The kinase still bound, per cent of control was 80%.

Q: What about the kinase still bound, per cent of control (PRKCE (human)) of the same compound?
A: Its kinase still bound, per cent of control is 86%.

Q: And the kinase still bound, per cent of control (PRKD2 (human))?
A: The kinase still bound, per cent of control was 100%.

Q: What about the kinase still bound, per cent of control (PRKD3 (human)) of the same compound?
A: Its kinase still bound, per cent of control is 100%.

Q: And the kinase still bound, per cent of control (RIOK1 (human))?
A: Its kinase still bound, per cent of control is 81%.

Q: And the kinase still bound, per cent of control (RIOK2 (human))?
A: Its kinase still bound, per cent of control is 24%.

Q: What about the kinase still bound, per cent of control (RPS6KA5 KD2 (human)) of the same compound?
A: Its kinase still bound, per cent of control is 100%.

Q: What about the kinase still bound, per cent of control (SGK110 (human)) of the same compound?
A: The kinase still bound, per cent of control was 94%.

Q: And the kinase still bound, per cent of control (STK3 (human))?
A: Its kinase still bound, per cent of control is 24%.

Q: And the kinase still bound, per cent of control (STK38L (human))?
A: The kinase still bound, per cent of control was 94%.

Q: What about the kinase still bound, per cent of control (SYK (human)) of the same compound?
A: Its kinase still bound, per cent of control is 78%.

Q: And the kinase still bound, per cent of control (TGFBR1 (human))?
A: Its kinase still bound, per cent of control is 70%.

Q: And the kinase still bound, per cent of control (ULK2 (human))?
A: The kinase still bound, per cent of control was 75%.

Q: Which results are given for COc1ccc(-c2ccc3c(N4CCOCC4)nc(N4C[C@@H](C)O[C@@H](C)C4)nc3n2)cc1CO?
A: kinase still bound, per cent of control (AKT3 (human)): 97%; kinase still bound, per cent of control (ANKK1 (human)): 98%; kinase still bound, per cent of control (BMP2K (human)): 98%; kinase still bound, per cent of control (BMX (human)): 86%; kinase still bound, per cent of control (CAMKK2 (human)): 64%; per cent of control (CDK19 (human)): 73%; kinase still bound, per cent of control (CaMK1 (human)): 90%; kinase still bound, per cent of control (EGFR (human)): 100%; kinase still bound, per cent of control (EPHA1 (human)): 96%; kinase still bound, per cent of control (EPHA2 (human)): 100%; kinase still bound, per cent of control (ERBB3 (human)): 85%; kinase still bound, per cent of control (ERBB4 (human)): 89%; kinase still bound, per cent of control (GRK7 (human)): 100%; kinase still bound, per cent of control (HUNK (human)): 90%; kinase still bound, per cent of control (ICK (human)): 100%; kinase still bound, per cent of control (LATS1 (human)): 96%; kinase still bound, per cent of control (LATS2 (human)): 89%; kinase still bound, per cent of control (LRRK2 (human)): 100%; kinase still bound, per cent of control (MAP3K4 (human)): 100%; kinase still bound, per cent of control (MAP4K1 (human)): 88%; kinase still bound, per cent of control (MARK3 (human)): 96%; kinase still bound, per cent of control (MINK1 (human)): 100%; kinase still bound, per cent of control (MKNK1 (human)): 36%; kinase still bound, per cent of control (NEK7 (human)): 100%; kinase still bound, per cent of control (NUAK1 (human)): 76%; kinase still bound, per cent of control (PI4KB (human)): 100%; kinase still bound, per cent of control (PIK3C2G (human)): 43%; kinase still bound, per cent of control [1]: 0%; kinase still bound, per cent of control (PIM1 (human)): 94%; kinase still bound, per cent of control (PRKCE (human)): 82%; kinase still bound, per cent of control (PRKD2 (human)): 96%; kinase still bound, per cent of control (PRKD3 (human)): 85%; kinase still bound, per cent of control (RIOK1 (human)): 51%; kinase still bound, per cent of control (RIOK2 (human)): 60%; kinase still bound, per cent of control (RPS6KA5 KD2 (human)): 100%; kinase still bound, per cent of control (SGK110 (human)): 98%; kinase still bound, per cent of control (STK3 (human)): 85%; kinase still bound, per cent of control (STK38L (human)): 95%; kinase still bound, per cent of control (SYK (human)): 100%; kinase still bound, per cent of control (TGFBR1 (human)): 100%; kinase still bound, per cent of control (ULK2 (human)): 100%

Reference: the kinase profiling compilation of Christmann-Franck et al. (2016)
